Drawing on patent US5714508A, “Bicycle Derivatives of imidazole” (Roussel Uclaf, priority 1993, dated 1998), this text covers IC50 and ED50 for three compounds.

The structures appear in SMILES notation.

One test has as its target T1, angiotensin II receptor (Rattus norvegicus, UniProt P25095).
T1 construct: A fresh membrane preparation obtained from rat's liver was used; from tissue; host or cells: rat liver membranes
T1 sequence (P25095 1-359): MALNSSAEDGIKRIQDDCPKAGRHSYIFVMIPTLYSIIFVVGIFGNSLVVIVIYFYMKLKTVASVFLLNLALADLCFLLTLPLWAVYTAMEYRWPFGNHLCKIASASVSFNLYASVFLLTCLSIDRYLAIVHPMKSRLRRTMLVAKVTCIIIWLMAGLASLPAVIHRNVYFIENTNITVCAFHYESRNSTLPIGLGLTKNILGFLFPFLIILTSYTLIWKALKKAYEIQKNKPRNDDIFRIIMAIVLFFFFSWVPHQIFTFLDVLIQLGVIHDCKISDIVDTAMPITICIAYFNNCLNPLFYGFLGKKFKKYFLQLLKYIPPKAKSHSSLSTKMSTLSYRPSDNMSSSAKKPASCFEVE
Kind of test: Test on the angiotensin II receptor (displacement of 125I angiotensin II from rat liver membranes). In kind it is binding. Conditions: rat liver membrane preparation, 25° C., 150 minutes, Tris buffer pH 7.4, read-out: IC50 in Nanomoles. On the procedure:
1--Test on the angiotensin II receptor
A fresh membrane preparation obtained from rat's liver was used and the tissue was ground up in a polytron in a 50 mM Tris buffer pH 7.4. The grinding process was followed by 3 centrifugations at 30,000 g for 15 minutes with intermediate taking up of the pellets in the Tris buffer pH 7.4. The last pellets were suspended in an incubation buffer (20 mM Tris, 135 mM NaCl, 10 mM KCl, 5 mM glucose, 10 mM MgCl2, 0.3 mM PMSF, 0.1 mM bacitracin, 0.2% BSA. 2 ml aliquoted fractions were distributed in hemolysis tubes and 125I angiotensin II (25,000 DPM/tube) and the product under test were added. The product was first tested at 3×10^-5 M three times. When the product tested displaced more than 50% of the radioactivity linked specifically to the receptor, it was tested again in a range of 7 concentrations to determine the concentration which inhibited 50% of the radioactivity linked specifically to the receptor. In this way, the 50% inhibiting concentration was determined.
The non-specific bond was determined by the addition of a product of Example 94 of European Patent No. 0,253,310 at 10^-5 M (three times). After incubation at 25° C. for 150 minutes, the suspension was put in a water-bath at 0° C. for 5 minutes, filtered under vacuum, rinsed with a Tris pH 7.4 buffer and the radioactivity was counted in the presence of scintillating Triton. The result was expressed directly as a 50% inhibiting concentration (IC50), that is to say the concentration of product studied, expressed in […], necessary to displace 50% of the specific radioactivity fixed to the receptor studied.
In general terms: Displacement assays read how much labelled ligand stays bound in the presence of the test substance.

Another test relates to angiotensin II. Put plainly: Test of the antagonistic activity of angiotensin II in a demedullated rat (diastolic arterial pressure). In kind it is in vivo, Male Sprague Dawley rats. Conditions: iv, venous route, injected 5 minutes before angiotensin II (0.75 micrograms/kg), pressure effects, read-out: 50% Inhibitory Doses. On the procedure: 2--Test of the antagonistic activity of angiotensin II in a demedullated rat
Male Sprague Dawley rats weighing 250 to 350 g were anaesthetized by an intraperitoneal injection of sodium pentobarbital (60 mg/kg). The diastolic arterial pressure was recorded with a heparinated catheter (PE50) introduced into the left carotid of the animal and connected to a pressure processor (Gould, Pressure Processor) via a Gould pressure sensor. A catheter was introduced into the right jugular of the animal for the injection of the molecules to be studied. The animal was placed under assisted respiration and a bilateral section of the vagus nerves was carried out. The rat was then demedullated.
After a sufficient period of stabilization, study of the antagonism of the compound vis-a-vis angiotensin II (Hypertensin Ciba) was started in the following way.
1--Three consecutive injections of angiotensin II (0.75 micrograms/kg) spaced 15 minutes apart which allowed a reproducible and stable pressure response to be obtained. […]
The pressure effects of the angiotensin II in the presence of the antagonist were expressed as a percentage of the pressure effects of the angiotensin II administered alone. The 50% inhibitory dose of the studied effect was thus determined. […]

For `CCCCc1nc2c(n1Cc1ccc(-c3ccccc3S(=O)(=O)NC(=O)OCC)cc1)C(=O)CCS2` [Example 4], the IC50 on angiotensin II receptor was determined as 0.2 nM. Besides, the ED50 in the test with angiotensin II worked out at 0.09 mg/kg.

For `CCCCc1nc2c(n1Cc1ccc(-c3ccccc3S(=O)(=O)NC(=O)NCCC)cc1)C(=NO)CCS2` [Example 7, 4'-[(2-butyl-7-(hydroxyimino)-1,5,6,7-tetrahydro-thiopyrano[2,3-d)-imidazol-1-yl)-methyl]-N-[(propylamino)-carbonyl]-(1,1'-biphenyl)-2-sulfonamide], the IC50 at angiotensin II receptor was determined as 5.3 nM.

Turning to `CCCCc1nc2c(n1Cc1ccc(-c3ccccc3S(=O)(=O)NC(=O)NCCC)cc1)C(=O)CCS2` [Example 3, 4'-[(2-butyl-6,7-dihydro-7-oxo-thiopyrano-(2,3-d)imidazol-1-(5H)-yl)-methyl]-N-[(propylamino)-carbonyl]-(1,1,'-biphenyl)-2-sulfonamide], at angiotensin II receptor, the IC50 was 1.3 nM. In addition, in the test on angiotensin II, the ED50 came out at 0.08 mg/kg.

As usually defined, the IC50 is the midpoint of a concentration-inhibition curve.
